From US9623028B2, “Methods of treating a cancer using substituted pyrrolopyrimidine compounds, compositions thereof” (Signal Pharmaceuticals, LLC, priority 2014, dated 2017)

Legend:
CLK1 [1] = biological target: T1, CLK1 (Homo sapiens (Human), UniProt P49759)
CLK2 [2] = biological target: T2, CLK2 (Homo sapiens (Human), UniProt P49760)
CLK1 [3] = biological target: T1, CLK1; test: biochemical; conditions: read-out: CLK1 (% Inh.), % inhibition at 3 μM
CLK2 [4] = biological target: T2, CLK2; test: biochemical; conditions: read-out: CLK2 (% Inh.), % inhibition at 3 μM

T1 sequence (P49759 whole entry): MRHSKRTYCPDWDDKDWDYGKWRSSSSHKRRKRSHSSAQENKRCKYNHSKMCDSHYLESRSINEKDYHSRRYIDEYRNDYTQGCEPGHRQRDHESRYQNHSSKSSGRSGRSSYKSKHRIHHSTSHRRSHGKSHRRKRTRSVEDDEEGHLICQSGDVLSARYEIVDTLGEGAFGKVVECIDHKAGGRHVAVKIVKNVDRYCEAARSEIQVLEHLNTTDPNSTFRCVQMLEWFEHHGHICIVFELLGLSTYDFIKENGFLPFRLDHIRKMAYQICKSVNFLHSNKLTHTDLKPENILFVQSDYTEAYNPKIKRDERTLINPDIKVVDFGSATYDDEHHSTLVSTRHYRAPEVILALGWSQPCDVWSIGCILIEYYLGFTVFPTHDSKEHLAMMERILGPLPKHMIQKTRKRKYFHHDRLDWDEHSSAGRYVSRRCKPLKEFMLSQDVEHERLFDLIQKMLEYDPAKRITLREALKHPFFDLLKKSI
T2 sequence (P49760 whole entry): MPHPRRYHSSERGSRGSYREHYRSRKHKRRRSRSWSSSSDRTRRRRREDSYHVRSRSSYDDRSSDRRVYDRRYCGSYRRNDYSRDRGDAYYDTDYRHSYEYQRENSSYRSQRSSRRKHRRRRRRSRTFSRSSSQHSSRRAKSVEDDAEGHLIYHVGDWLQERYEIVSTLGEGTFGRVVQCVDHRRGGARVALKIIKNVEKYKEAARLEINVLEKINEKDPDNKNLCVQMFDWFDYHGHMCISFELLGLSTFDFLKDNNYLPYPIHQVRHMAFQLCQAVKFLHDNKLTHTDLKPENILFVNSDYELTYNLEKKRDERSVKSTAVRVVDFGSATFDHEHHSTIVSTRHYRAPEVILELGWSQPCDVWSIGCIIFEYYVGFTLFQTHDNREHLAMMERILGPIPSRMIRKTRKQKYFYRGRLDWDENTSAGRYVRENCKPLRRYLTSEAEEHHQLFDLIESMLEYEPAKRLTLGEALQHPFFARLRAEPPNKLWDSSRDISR

| CLK1 (% Inh.) (CLK1 [1]; % inhibition at 3 μM) [%] | CLK2 (% Inh.) (CLK2 [2]; % inhibition at 3 μM) [%] | Compound | IC50 (CLK1 [1]; read-out: CLK1 (IC50)) [nM] | IC50 (CLK2 [2]; read-out: CLK2 (IC50)) [nM] | inhibition at 3 µM (CLK1 [3]) [%] | inhibition at 3 µM (CLK2 [4]) [%] |
| --- | --- | --- | --- | --- | --- | --- |
| 92 | 97 | CNC(=O)c1ccc(Nc2nc(OC3CCC(C)(O)CC3)c3c(-c4ccc5nc(C)oc5c4)c[nH]c3n2)c(OC)c1 (stereo not drawn) [Compound 206, 4-(4-((1s,4s)-4-hydroxy-4-methylcyclohexyloxy)-5-(2-methylbenzo[d]oxazol-6-yl)-7H-pyrrolo[2,3-d]pyrimidin-2-ylamino)-3-methoxy-N-methylbenzamide] | – | – | – | – |
| – | – | CNC(=O)c1ccc(-c2c[nH]c3nc(Nc4ccc(C(=O)NC5CN(C)C5)cc4OC)nc(OC4CCC(C)(O)CC4)c23)cc1 (stereo not drawn) [Compound 349, 4-(4-((1s,4s)-4-hydroxy-4-methylcyclohexyloxy)-5-(4-(methylcarbamoyl)phenyl)-7H-pyrrolo[2,3-d]pyrimidin-2-ylamino)-3-methoxy-N-(1-methylazetidin-3-yl)benzamide] | 59.3 | 1.43 | 101 | 102 |
